{
  "source": "paper PMC11054282",
  "about": "“Structural Investigations on 2-Amidobenzimidazole Derivatives as New Inhibitors of Protein Kinase CK1 Delta” (Pharmaceuticals, 2024)",
  "origin": "cited, not measured here",
  "key": {"CK1δ": {"test_system": "CK1δ", "details": "cited from earlier work"}, "CK1ε": {"test_system": "CK1ε", "details": "cited from earlier work"}},
  "note": "Like-named read-outs stand apart in the source and are kept apart here.",
  "data": [
    {"smiles": "COc1ccc(/C=C/C(=O)Nc2cc(-c3nc(SC)[nH]c3-c3ccc(F)cc3)ccn2)c(OC)c1", "note": "[III]", "values": [
      {"measurement": "IC50", "setting": "CK1δ; compound III, Figure 1, read-out: CK1δ IC50", "value": 4, "unit": "nM"},
      {"measurement": "IC50", "setting": "CK1ε; compound III, Figure 1", "value": 73, "unit": "nM"}
    ]},
    {"smiles": "COc1ccc(/C=C/C(=O)Nc2cc(-c3c(-c4ccc(F)cc4)noc3C(C)C)ccn2)c(OC)c1", "note": "[II]", "values": [
      {"measurement": "IC50", "setting": "CK1δ; compound II, Figure 1, read-out: CK1δ IC50", "value": 33, "unit": "nM"},
      {"measurement": "IC50", "setting": "CK1ε; compound II, Figure 1", "value": 2520, "unit": "nM"}
    ]},
    {"smiles": "Nc1nccc(-c2c(-c3ccc(F)cc3)ncn2C2CCCCC2)n1", "note": "[PF-670462]", "values": [
      {"measurement": "IC50", "setting": "CK1δ; PF-670462, read-out: CK1δ IC50", "value": "[…]"},
      {"measurement": "IC50", "setting": "CK1δ; PF-670462 as positive control, value in the method section, read-out: IC50", "value": "[…]"},
      {"measurement": "IC50", "setting": "CK1ε; PF-670462", "value": "[…]"}
    ]},
    {"smiles": "O=C(Nc1nc2cc(C(F)(F)F)ccc2[nH]1)c1csc(NC(=O)c2ccccc2OC(F)(F)F)n1", "note": "[V]", "values": [
      {"measurement": "IC50", "setting": "CK1δ; Bischof-5, Figure 2, read-out: CK1δ IC50", "value": "[…]"}
    ]}
  ]
}
